Measured values taken from patent US20240335445A1, “Compounds and Compositions for Treating Fibrosis” (YALE UNIVERSITY, priority 2017, published 2024).

What was measured:
Format in all cases: biochemical
MKP5 [1] = target: T1, MKP5 (Homo sapiens, UniProt Q9Y6W6); test: MKP5 EZReader assay with fluorescent mono-phosphorylated peptides
T1 sequence (Q9Y6W6 1-482): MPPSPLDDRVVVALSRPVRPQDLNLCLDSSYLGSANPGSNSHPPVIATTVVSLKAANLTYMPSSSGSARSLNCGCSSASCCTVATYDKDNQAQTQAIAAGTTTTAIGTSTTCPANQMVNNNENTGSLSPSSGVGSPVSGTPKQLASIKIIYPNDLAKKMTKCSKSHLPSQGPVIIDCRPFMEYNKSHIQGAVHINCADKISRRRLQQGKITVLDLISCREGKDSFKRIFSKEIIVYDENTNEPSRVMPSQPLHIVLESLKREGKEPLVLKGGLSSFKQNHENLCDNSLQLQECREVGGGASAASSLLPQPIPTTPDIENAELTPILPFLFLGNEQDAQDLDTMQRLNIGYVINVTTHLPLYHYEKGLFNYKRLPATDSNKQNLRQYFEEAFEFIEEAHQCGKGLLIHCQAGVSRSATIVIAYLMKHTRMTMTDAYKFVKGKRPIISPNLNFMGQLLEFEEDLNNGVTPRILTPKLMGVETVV

MKP5 [2] = target: T1, MKP5; test: MKP-5 Malachite Green phosphate assay with dual phosphorylated peptide pTpY; details: for inhibition at 12.5 µM: read-out: % inhibition of MKP-5
Source text: In a non-limiting example, the assay comprises contacting a peptide comprising the sequence pThr-Gly-pTyr, the polypeptide comprising and/or consisting of the catalytic domain of MKP-5 (such as but not limited to residues 305-482 of SEQ ID NO:4), or an active fragment thereof, and the test compound. If the test compound is a MKP-5 inhibitor, it will inhibit the dephosphorylation of the peptide comprising the sequence pThr-Gly-pTyr. If the test compound is not a MKP-5 inhibitor, it will not inhibit the dephosphorylation of the peptide comprising the sequence pThr-Gly-pTyr. Dephosphorylation of that peptide can be evaluated qualitatively and/or quantitatively using any methods known in the art, such as but not limited to a Malachite Green Phosphate Assay. This assay provides a fast, reproducible, colorimetric method for measuring inorganic free phosphate in aqueous solutions. The assay method is based on the formation of a complex between malachite green molybdate and free orthophosphate that absorbs at 620-640 nm. This assay is a reliable and suitable means of detecting and quantifying minimal amounts of inorganic free phosphate and is amenable to high-throughput screening applications.
Compounds from the pilot collection consisting of Microsource GenPlus, Microsource Natural Product, NIH Clinical collections, ChemBridge DIVERSet, ChemBridge MicroFormats, Maybridge Diversity, and ChemBridge Amines and Alcohols were screened. Assay conditions were 1.5 μM MKP-5 and 25 μM dual phosphorylated peptide DDE (Nle) (pT) G (pY) VATR (10 μL total volume), incubated for 30 minutes at 37° C. followed by addition of 40 μL Malachite Green reagent. Z′ values are ˜0.7-0.8. Malachite green reagent was made by combining 30 mL 0.045% Malachite Green (Sigma #M-9636) with 20 mL 4.2% ammonium molybdate in 4 M HCl, shaking for at least 30 mins and adding 0.01% Tween 20.

MKP5 [3] = target: T1, MKP5; test: MKP5 pNPP assay
MKP5 [4] = target: T1, MKP5; test: MKP-5 inhibition, assay not specified; details: read-out: IC50 against MKP-5
[5] = Kd (M) MKP5 EZREader fluor pT_Y, substrate fluor pT_Y (SEQ ID NO: 2)
[6] = Kd (M) MKP5 EZReader fluor_TpY, substrate fluor_TpY (SEQ ID NO: 1)

Row | Structure (SMILES) | Kd (MKP5 [1]; [5]) [M] | Kd (MKP5 [1]; [6]) [M] | Kd (MKP5 [2]) [µM] | Kd (MKP5 [3]) [µM] | IC50 (MKP5 [4]) [µM] | inhibition at 12.5 µM (MKP5 [2]) [%]
1 | CSc1scc2c1-c1nc(SCC(=O)C(C)(C)C)ncc1CC2 [YU032149, 3,3-dimethyl-1-((9-(methylthio)-5,6-dihydrothieno[3,4-h]quinazolin-2-yl)thio)butan-2-one] | 1.13e-05 | 1.75e-05 | 6.25 | 4.23 | ~12 | 
2 | O=C(O)c1ccc(C2Nc3c(-c4ccccc4)cccc3C3C=CCC32)cc1 (centres unmarked) [YU119284] | > 0.0002 | > 0.0002 | > 100 | > 200 |  | 
3 | CC(C)(C)C(=O)CSc1ncc2c(n1)-c1ccsc1CC2 [YU252252] |  |  |  |  |  | 37
4 | O=c1cc2oc3cc(O)c(O)cc3c(-c3ccc([N+](=O)[O-])o3)c-2cc1O [YU109017] | 1.56e-05 | 1.03e-05 | > 100 | > 100 |  | 
5 | CC(C)(C)C(=O)CSc1ncc2cnc3ccccc3c2n1 [YU241658] |  |  |  |  |  | 15
6 | Cc1ccc(C)n1-c1ccc(C(=O)O)c(O)c1 [YU129641] | 1.41e-05 | 1.04e-05 | > 100 | > 200 |  | 
7 | CC(=O)N1Cc2cnc(SCC(=O)C(C)(C)C)nc2-c2ccccc21 [YU241659] |  |  |  |  |  | 12
